Laboratory results published in ChEMBL document CHEMBL5465560, “Selectivity Literature for EUbOPEN Chemogenomic Library” (2024).
Values belong to the compound of their own block, whether it stands above or below them.

How the values were obtained:
[1] = molecular target: Mitogen-activated protein kinase 3 (Homo sapiens, UniProt P27361); assay: Selectivity interaction (Kinase panel (Z-LYTE Assay)) EUB0001632a MAPK3; conditions: at 10 µM
[2] = molecular target: cAMP-dependent protein kinase catalytic subunit beta (Homo sapiens) (UniProt P22694); assay: Selectivity interaction (KinomeScan (DiscoverX)) EUB0000666a PRKACB; conditions: at 10 µM
[3] = molecular target: T1, Ephrin type-B receptor 2 (Homo sapiens) (UniProt P29323); assay: Selectivity interaction (SelectScreen profiling (Invitrogen)) EUB0000607a EPHB2; conditions: at 2 µM
T1 sequence (whole entry): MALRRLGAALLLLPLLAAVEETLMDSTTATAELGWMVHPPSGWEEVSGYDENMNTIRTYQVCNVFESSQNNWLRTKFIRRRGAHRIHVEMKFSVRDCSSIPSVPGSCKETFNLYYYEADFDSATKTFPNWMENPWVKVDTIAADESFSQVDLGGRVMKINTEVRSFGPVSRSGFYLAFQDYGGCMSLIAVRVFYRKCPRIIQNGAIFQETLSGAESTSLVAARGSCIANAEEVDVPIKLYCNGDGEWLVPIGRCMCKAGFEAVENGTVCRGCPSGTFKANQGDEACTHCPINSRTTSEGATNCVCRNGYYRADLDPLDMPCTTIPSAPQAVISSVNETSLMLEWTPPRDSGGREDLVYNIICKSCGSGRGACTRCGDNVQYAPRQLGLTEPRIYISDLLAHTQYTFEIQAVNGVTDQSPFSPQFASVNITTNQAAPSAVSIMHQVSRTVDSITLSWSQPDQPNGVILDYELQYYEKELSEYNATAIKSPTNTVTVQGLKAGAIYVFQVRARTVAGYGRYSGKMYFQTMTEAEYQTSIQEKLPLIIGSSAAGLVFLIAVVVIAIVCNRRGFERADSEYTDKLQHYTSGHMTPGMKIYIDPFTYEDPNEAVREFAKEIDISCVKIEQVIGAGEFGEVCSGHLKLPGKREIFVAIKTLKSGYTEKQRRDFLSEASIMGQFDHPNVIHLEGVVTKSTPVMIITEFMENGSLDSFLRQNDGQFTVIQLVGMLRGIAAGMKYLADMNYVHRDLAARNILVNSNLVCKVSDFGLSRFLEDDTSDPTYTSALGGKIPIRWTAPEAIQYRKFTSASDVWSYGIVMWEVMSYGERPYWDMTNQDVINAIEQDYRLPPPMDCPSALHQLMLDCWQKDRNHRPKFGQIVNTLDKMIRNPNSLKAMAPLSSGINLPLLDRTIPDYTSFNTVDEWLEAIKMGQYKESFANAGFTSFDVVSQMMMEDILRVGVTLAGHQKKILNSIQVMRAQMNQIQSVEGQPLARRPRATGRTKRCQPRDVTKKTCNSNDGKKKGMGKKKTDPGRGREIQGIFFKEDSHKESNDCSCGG

[4] = molecular target: Tyrosine-protein kinase ABL1 (Homo sapiens, UniProt P00519); assay: Selectivity interaction (ActivX KiNativ screen (kinase selectivity in THP-1 cell lysates)) EUB0000639a ABL1; assay type: subcellular; conditions: lysate, at 0.04 µM
[5] = molecular target: T2, Interleukin-1 receptor-associated kinase 3 (Homo sapiens) (UniProt Q9Y616); assay: Selectivity interaction (ActivX KiNativ screen (kinase selectivity in THP-1 cell lysates)) EUB0000639a IRAK3; assay type: subcellular; conditions: lysate, at 0.04 µM
T2 sequence (whole entry): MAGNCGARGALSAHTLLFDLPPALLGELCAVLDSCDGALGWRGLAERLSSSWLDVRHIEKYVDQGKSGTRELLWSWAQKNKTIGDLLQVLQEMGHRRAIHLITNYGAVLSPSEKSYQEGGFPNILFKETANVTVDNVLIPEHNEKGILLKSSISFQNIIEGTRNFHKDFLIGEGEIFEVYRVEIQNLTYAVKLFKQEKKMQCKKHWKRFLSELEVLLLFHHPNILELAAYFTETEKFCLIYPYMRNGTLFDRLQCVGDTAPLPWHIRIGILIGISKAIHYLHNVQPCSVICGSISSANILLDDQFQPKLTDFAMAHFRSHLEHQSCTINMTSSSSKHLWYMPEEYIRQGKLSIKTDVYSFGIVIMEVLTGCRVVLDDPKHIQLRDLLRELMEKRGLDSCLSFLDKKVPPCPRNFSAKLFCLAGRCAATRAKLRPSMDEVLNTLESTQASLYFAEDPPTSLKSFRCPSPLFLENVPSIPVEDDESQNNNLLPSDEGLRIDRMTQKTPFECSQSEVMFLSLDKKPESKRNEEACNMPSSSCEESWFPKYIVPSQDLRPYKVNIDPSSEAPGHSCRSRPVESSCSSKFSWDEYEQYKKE

[6] = molecular target: Serine/threonine-protein kinase WNK2 (Homo sapiens) (UniProt Q9Y3S1); assay: Selectivity interaction (ProQinase) EUB0000171b WNK2
Chain of Serine/threonine-protein kinase WNK2 (Homo sapiens) (Q9Y3S1 whole entry): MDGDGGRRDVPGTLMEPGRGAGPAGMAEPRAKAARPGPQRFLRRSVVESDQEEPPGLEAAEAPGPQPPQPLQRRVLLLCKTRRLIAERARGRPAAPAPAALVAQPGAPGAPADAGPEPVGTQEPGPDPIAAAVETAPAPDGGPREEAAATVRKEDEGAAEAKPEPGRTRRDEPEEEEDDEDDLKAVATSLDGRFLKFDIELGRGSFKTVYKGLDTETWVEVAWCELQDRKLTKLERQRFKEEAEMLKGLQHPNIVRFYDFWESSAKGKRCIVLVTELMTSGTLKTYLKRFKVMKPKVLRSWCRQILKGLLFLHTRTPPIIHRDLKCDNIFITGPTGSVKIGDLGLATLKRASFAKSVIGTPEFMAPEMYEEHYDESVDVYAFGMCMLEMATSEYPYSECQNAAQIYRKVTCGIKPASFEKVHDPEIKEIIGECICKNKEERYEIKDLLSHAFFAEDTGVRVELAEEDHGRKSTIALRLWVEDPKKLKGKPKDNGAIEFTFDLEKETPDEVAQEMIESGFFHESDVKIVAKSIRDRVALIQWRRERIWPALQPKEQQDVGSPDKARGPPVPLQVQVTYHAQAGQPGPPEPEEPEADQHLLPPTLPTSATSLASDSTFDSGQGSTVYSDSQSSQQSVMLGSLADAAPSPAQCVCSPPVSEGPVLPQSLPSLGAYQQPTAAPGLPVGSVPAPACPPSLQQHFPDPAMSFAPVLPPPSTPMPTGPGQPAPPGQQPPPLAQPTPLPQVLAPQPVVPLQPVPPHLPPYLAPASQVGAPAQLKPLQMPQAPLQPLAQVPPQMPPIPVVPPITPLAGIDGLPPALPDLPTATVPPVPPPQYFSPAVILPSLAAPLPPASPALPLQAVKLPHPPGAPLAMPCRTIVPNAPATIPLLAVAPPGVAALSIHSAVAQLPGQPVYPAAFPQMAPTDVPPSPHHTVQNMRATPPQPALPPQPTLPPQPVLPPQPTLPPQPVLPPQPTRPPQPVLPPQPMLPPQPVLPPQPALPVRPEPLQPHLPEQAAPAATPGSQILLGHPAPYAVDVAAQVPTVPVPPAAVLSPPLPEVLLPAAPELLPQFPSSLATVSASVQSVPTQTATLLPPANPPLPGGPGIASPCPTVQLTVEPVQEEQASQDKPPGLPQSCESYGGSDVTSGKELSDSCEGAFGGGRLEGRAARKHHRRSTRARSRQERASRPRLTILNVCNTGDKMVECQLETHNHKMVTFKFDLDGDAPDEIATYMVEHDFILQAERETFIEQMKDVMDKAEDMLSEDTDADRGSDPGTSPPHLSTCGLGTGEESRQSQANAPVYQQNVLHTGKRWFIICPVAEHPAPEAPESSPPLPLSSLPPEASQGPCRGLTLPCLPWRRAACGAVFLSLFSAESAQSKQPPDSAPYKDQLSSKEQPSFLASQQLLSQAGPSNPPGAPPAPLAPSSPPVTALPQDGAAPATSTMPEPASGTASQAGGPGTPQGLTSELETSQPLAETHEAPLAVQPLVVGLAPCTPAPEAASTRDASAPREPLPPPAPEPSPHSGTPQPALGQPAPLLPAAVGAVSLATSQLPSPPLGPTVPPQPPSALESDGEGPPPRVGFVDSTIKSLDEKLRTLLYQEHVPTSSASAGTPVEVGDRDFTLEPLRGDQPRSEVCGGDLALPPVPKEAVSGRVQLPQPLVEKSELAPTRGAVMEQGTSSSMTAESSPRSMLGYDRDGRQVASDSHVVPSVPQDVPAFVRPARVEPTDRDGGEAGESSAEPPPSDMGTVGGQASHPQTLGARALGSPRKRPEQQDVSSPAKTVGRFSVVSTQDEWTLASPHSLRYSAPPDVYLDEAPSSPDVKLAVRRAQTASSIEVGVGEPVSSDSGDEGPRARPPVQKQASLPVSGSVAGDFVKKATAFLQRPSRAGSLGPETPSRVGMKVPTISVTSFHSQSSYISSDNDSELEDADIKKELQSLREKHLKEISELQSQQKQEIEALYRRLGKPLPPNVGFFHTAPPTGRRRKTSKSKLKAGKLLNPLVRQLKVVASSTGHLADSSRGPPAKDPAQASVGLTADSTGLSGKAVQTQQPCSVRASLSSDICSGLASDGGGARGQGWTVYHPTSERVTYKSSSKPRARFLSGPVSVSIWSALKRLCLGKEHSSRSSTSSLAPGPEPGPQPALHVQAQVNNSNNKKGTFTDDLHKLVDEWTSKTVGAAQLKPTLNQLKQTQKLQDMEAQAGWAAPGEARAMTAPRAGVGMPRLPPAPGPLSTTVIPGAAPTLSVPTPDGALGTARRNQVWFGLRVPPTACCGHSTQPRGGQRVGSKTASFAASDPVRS

[7] = molecular target: Cyclin-dependent kinase 2 (Homo sapiens, UniProt P24941); assay: Selectivity interaction (KinomeScan (DiscoverX)) EUB0000655a CDK2; conditions: at 10 µM
[8] = molecular target: Protein kinase C eta type (Homo sapiens) (UniProt P24723); assay: Selectivity interaction (KinomeScan (DiscoverX)) EUB0000045b PRKCH
Chain of Protein kinase C eta type (Homo sapiens) (P24723 whole entry): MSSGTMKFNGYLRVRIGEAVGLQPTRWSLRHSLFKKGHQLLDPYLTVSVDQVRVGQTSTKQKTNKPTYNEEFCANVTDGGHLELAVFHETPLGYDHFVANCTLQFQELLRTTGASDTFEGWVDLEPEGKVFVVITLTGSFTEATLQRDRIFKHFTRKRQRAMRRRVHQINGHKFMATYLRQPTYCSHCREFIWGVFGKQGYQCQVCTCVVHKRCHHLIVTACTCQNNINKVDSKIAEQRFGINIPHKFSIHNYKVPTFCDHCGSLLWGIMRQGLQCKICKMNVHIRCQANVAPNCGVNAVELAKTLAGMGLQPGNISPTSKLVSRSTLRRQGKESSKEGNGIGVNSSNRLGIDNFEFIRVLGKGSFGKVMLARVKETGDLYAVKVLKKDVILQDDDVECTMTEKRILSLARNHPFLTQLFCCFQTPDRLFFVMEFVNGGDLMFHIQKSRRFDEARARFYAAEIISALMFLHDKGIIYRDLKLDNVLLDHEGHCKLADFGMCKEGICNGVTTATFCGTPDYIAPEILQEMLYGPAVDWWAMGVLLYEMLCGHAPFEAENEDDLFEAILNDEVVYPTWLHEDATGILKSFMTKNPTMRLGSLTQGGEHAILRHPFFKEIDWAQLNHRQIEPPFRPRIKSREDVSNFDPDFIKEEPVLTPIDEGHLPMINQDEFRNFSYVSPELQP

[9] = molecular target: Serine/threonine-protein kinase PAK 6 (Homo sapiens) (UniProt Q9NQU5); assay: Selectivity interaction (KinomeScan (DiscoverX)) EUB0001079a PAK6; conditions: at 1 µM
Chain of Serine/threonine-protein kinase PAK 6 (Homo sapiens) (Q9NQU5 whole entry, looked up): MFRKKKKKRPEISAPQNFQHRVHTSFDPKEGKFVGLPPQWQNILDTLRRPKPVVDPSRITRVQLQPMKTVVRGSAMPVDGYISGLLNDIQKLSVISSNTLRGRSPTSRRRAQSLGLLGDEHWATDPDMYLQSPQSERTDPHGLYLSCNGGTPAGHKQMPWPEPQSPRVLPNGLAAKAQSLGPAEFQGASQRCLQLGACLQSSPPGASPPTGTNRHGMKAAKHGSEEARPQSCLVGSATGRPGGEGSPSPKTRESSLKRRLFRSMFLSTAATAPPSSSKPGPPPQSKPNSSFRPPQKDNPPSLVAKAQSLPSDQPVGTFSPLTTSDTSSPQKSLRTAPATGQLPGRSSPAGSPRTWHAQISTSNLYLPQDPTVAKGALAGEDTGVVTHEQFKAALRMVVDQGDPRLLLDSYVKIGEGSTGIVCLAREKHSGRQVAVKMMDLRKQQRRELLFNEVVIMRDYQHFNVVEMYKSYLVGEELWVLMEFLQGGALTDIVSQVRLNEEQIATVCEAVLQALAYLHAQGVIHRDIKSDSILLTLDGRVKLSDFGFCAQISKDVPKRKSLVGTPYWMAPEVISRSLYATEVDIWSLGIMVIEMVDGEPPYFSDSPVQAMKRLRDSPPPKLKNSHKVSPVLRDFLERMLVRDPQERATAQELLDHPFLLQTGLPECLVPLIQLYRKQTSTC

[10] = molecular target: Ribosomal protein S6 kinase alpha-3 (Homo sapiens, UniProt P51812); assay: Selectivity interaction (ActivX KiNativ screen (ex vivo kinase selectivity in human PBMCs)) EUB0001619a RPS6KA3; assay type: cell-based; conditions: PBMC, at 1 µM
Chain of Ribosomal protein S6 kinase alpha-3 (P51812 whole entry): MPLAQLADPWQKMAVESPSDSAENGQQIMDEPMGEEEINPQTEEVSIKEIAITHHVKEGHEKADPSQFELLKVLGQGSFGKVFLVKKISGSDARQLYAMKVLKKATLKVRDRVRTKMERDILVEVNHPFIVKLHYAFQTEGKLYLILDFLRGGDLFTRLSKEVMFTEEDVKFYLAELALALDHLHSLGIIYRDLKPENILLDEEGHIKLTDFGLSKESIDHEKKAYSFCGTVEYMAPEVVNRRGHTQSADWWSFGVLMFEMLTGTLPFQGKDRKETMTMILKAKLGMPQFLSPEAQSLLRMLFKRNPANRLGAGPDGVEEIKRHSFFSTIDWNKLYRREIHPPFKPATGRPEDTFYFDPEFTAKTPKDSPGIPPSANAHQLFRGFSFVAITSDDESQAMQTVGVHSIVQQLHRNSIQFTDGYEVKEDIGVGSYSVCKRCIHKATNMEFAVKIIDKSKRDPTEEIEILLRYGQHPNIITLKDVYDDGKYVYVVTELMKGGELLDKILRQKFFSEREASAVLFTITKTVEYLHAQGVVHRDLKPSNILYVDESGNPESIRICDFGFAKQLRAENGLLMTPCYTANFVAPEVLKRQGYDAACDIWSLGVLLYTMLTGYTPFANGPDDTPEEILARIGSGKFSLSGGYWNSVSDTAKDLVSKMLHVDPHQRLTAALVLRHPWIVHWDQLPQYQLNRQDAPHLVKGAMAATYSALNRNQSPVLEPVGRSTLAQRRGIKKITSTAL

[11] = molecular target: High affinity nerve growth factor receptor (Homo sapiens, UniProt P04629); assay: Selectivity interaction (KinomeScan (DiscoverX)) EUB0001619a NTRK1; conditions: at 1 µM

Chain of Mitogen-activated protein kinase 3 (P27361 whole entry): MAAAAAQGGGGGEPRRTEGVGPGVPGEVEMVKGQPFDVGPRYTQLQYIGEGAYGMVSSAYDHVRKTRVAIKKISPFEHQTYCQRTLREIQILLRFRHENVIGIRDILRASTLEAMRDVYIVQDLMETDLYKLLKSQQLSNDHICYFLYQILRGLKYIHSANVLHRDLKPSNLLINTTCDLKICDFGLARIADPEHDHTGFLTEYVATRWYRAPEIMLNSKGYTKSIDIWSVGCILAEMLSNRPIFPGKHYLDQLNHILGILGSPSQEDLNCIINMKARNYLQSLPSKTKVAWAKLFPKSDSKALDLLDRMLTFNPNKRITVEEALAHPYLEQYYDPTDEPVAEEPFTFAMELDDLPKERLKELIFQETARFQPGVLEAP

% of control [1]: -1.61%
Structure (SMILES): Cn1cc(-n2cnc3c(NCc4nc5cc(Cl)c(Cl)cc5[nH]4)nc(N4CCOCC4)nc32)cn1

Structure (SMILES): O=C(NOC[C@H](O)CO)c1ccc(F)c(F)c1Nc1ccc(I)cc1F
% of control [2]: 98%

Structure (SMILES): CNC(=O)Nc1ccc(-c2nc(N3CC4CCC(C3)O4)c3cnn(C4CCC5(CC4)OCCO5)c3n2)cc1
% of inhibition [3]: 6%

% of inhibition [4]: -16.4%
% of inhibition [5]: -1.7%
Structure (SMILES): CC[C@@H]1[C@H](F)C(=O)N[C@@H]1COc1nccc2cc(C(N)=O)c(OC)cc12 [ZIMLOVISERTIB]

% of control ([6]; at 1 µM): 98%
% of control ([6]; at 5 µM): 78%
Structure (SMILES): C=CC(=O)Nc1cccc(C(=O)Nc2ccc(Nc3cc(-c4[nH]c(SC)nc4C)ccn3)cc2)c1

Structure (SMILES): CN(C)CCOc1ccc(-c2nc(-c3ccncc3)c(-c3ccc4c(c3)CC/C4=N\O)[nH]2)cc1
% of control [7]: 100%

Structure (SMILES): C=CC(=O)Nc1cc(-n2c(=O)ccc3cnc4ccc(-c5ccc(NS(C)(=O)=O)cc5)cc4c32)ccc1C
% of control ([8]; at 1 µM): 98%
% of control ([8]; at 10 µM): 100%

Structure (SMILES): Nc1cnc(N2CCc3cc(S(=O)(=O)Nc4c(F)cc(Cl)cc4F)cc(N4CCCC4=O)c32)nc1 [TP-020n]
% of control [9]: 100%

Structure (SMILES): N#Cc1cccc(-c2c[nH]c3ncnc(N4CCOCC4)c23)c1
% of inhibition [10]: 21%
% of control [11]: 88%
